Experimental data as given in EP2794556B1, “BIS-(ARYL/HETEROARYL)-METHYLENE COMPOUNDS, PHARMACEUTICAL COMPOSITIONS CONTAINING SAME AND THEIR USE FOR TREATING CANCER” (Gleason, James L., priority 2011, dated 2013).

System: NCI-H522
Assay: NCI 60 cell panel

Q: What does the source list for `CCC(CC)(c1ccc(OCC(=O)NO)c(C)c1)c1ccc(OCC(O)C(C)(C)C)c(C)c1` (racemic) [JF-B01, N-Hydroxy-2-(4-(3-(4-(2-hydroxy-3,3-dimethylbutoxy)-3-methylphenyl)pentan-3-yl)-2-methylphenoxy)acetamide]?
A: GI50 (Homo sapiens, NCI-H522): 0.196 µM; CC50 (Homo sapiens, NCI-H522, read-out: LC50): 19.5 µM; TGI (Non-Small Cell Lung Cancer, NCI-H522): 5.18E-7
